Data as given in patent publication US10010492B2, “Methods and compositions for treating skin to resolve inflammation and screening for actives that stimulate pro-resolution pathways” (ELC Management LLC, priority 2015, dated 2018).

Key:
[1] = test system: Pro-Resolving Lipid Mediator Markers 15-HETE, 12-HETE, 14-HDOHE, 18-HEPE, and 17-HDOHE; assay: Pro-Resolving Lipid Mediator Markers in the aggregate, PMA/A23187-stimulated neutrophils, LC-MS/MS; format: cell-based, human
Procedure: (§1) Ingredients were tested to assess the ability to promote Pro-Resolution Pathway Stimulators in human neutrophils. The following Inflammatory Metabolites were measured:
(§2) PGE2 and LTB4. The Inflammatory Metabolite Marker, 5-HETE, was measured. Also measured were the Pro-Resolving Lipid Mediator Markers 15-HETE, 12-HETE, 14-HDOHE, 18-HEPE, and 17-HDOHE. PGE2, LTB4, and 5-HETE are indicators of inflammation. Increases in cellular secretion of PGE2, LTB4, or 5-HETE are seen in response to inflammation precipitating conditions. Active ingredients that cause a reduction in cellular concentration of PGE2, LTB4, or 5-HETE are anti-inflammatory in nature. Cellular secretion of Pro-Resolving Lipid Mediators occurs in the inflammation resolution phase. Active ingredients that stimulate cellular secretion of Pro-Resolving Lipid Mediators (as measured by measuring Pro-Resolving Lipid Mediator Markers) help to promote resolution of inflammation.
(§3) Then, the inflammatory response was initiated by adding an inflammation precipitating ingredient, in particular PMA/[…] which is a mixture of 5-(methylamino)-2-({(2R,3R,6S,8S,9R,11R)-3,9,11-trimethyl-8-[(1S)-1-methyl-2-oxo-2-(1H-pyrrol-2-yl)ethyl]-1,7-dioxaspiro[5.5]undec-2-yl}methyl)-1,3-benzoxazole-4-carboxylic acid and PMA (phorbol myristate acetate), at a concentration of 0.05 μm and 1 μm respectively to each well. After one hour the supernatants were collected and stored at −80° C. until assayed.
(§4) Cell supernatants were assayed for Inflammatory Metabolites (PGE2, LBT4), Inflammatory Metabolite Markers (5-HETE), and Pro-Resolving Lipid Mediator Markers 15-HETE, 12-HETE, 14-HDOHE, 18-HEPE, and 17-HDOHE. More specifically, analysis was performed by extraction using an Oasis HLB 96-well plate (Waters) according to manufacturer's directions.
(§5) Suitable Pro-Resolving Activators are ingredients that show an increase in cellular concentration of Pro-Resolving Lipid Mediator Markers 15-HETE, 12-HETE, 14-HDOHE, 18-HEPE, and 17-HDOHE alone or in combination, when cells exposed to an inflammation precipitating condition either before or after exposure to the active.

[2] = test system: Inflammatory Metabolites (PGE2, LTB4) and Inflammatory Metabolite Marker (5-HETE); assay: Inflammatory Metabolites and Inflammatory Metabolite Markers in the aggregate, PMA/A23187-stimulated neutrophils, LC-MS/MS; format: cell-based, human; conditions: for net decrease in cellular concentration of Inflammatory Metabolites and Inflammatory Metabolite Markers vs control: human neutrophils pre-treated 24 h, then PMA/A23187
Procedure: as §1, §2, §3, §4, §5

resveratrol salicylate
increase in cellular concentration of Pro-Resolving Lipid Mediator Markers in the aggregate ([1]; 0.43 ug/ml): not being as effective
increase in cellular concentration of Pro-Resolving Lipid Mediator Markers in the aggregate ([1]; 4.3 ug/ml): 4%
increase in cellular concentration of Pro-Resolving Lipid Mediator Markers in the aggregate ([1]; 43 ug/ml): 37%
decrease in Inflammatory Metabolites and Inflammation Metabolite Markers in the aggregate vs control ([2]; 0.43 ug/ml): 87%
decrease in Inflammatory Metabolites and Inflammation Metabolite Markers in the aggregate vs control ([2]; 4.3 ug/ml): 163%
decrease in Inflammatory Metabolites and Inflammation Metabolite Markers in the aggregate vs control ([2]; 43 ug/ml): 257%

Oc1ccc(C=Cc2cc(O)cc(O)c2)cc1 [resveratrol]
% change of Pro-Resolving Lipid Mediator Markers in the aggregate compared to control ([1]; 0.1 ug/ml): −27%
% change of Pro-Resolving Lipid Mediator Markers in the aggregate compared to control ([1]; 1 ug/ml): −16%
% change of Pro-Resolving Lipid Mediator Markers in the aggregate compared to control ([1]; 10 ug/ml): −10%
decrease in Inflammatory Metabolites and Markers in the aggregate vs control ([2]; 0.1 ug/ml): 45%
decrease in Inflammatory Metabolites and Markers in the aggregate vs control ([2]; 1 ug/ml): 59%
decrease in Inflammatory Metabolites and Markers in the aggregate vs control ([2]; 10 ug/ml): 106%

O=C(O)c1ccccc1O [salicylic acid]
change in cellular concentration of Pro-Resolving Lipid Mediators vs control ([1]; 0.33 ug/ml): small increase
change in cellular concentration of all Pro-Resolving Lipid Mediator Markers in the aggregate vs control ([1]; 3.3 μg/ml): decreased
change in cellular concentration of all Pro-Resolving Lipid Mediator Markers in the aggregate vs control ([1]; 33 μg/ml): decreased
net decrease in cellular concentration of Inflammatory Metabolites and Inflammatory Metabolite Markers vs control ([2]; 0.33 μg/ml, aggregate of PGE2, LTB4, 5-HETE): 29%
net decrease in cellular concentration of Inflammatory Metabolites and Inflammatory Metabolite Markers vs control ([2]; 3.3 μg/ml, aggregate): 58%
net decrease in cellular concentration of Inflammatory Metabolites and Inflammatory Metabolite Markers vs control ([2]; 33 μg/ml, aggregate): 46%
